This note sets out measurements from patent publication US20100240709A1, “Sulfoximine Derivatives as p38 MAP Kinase Inhibitors” (priority 2005, published 2010).

Sequence of p38 MAP kinase (Q16539 whole entry): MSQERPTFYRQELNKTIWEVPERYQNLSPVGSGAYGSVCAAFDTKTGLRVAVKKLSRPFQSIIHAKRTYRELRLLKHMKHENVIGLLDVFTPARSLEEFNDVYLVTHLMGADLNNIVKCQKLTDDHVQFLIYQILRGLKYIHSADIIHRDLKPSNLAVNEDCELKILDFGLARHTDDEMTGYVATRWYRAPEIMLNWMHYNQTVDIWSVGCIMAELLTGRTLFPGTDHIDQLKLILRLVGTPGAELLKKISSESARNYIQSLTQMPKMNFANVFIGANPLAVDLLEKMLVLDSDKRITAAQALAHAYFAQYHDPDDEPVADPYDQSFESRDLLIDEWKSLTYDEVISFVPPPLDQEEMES

This experiment concerns the target p38 MAP kinase (Homo sapiens, UniProt Q16539). The experiment can be described thus: p-38 MAPK Enzyme assay (in vitro ELISA, ATF-2 substrate). It counts as biochemical. To be noted: ELISA detection of phosphorylated ATF-2. The text has this:
The compounds were screened using an in vitro ELISA assay for p38 MAP kinase activity. Activated p38 MAP kinase during the course of its biological function phosphorylates its substrates. The assay was based on the detection of a phosphorylated p38 MAP kinase substrate using ATF-2 as the biological substrate. More the activity of the p38 MAP kinase inhibitor in the reaction mixture less will be the amount of active p38 MAP kinase available to phosphorylate ATF-2. So, lower OD value will indicate the higher inhibition of p38 MAP kinase by the specific p38 MAP kinase inhibitor. The quantitation of phosphorylated ATF-2 at varying concentrations of p38 MAP kinase inhibitor was used to determine the IC50 by fitting the results to a logistic dose-response program (Graphpad Prism, CA). IC50 was defined as the concentration of compound required to achieve 50% inhibition of p38 MAP kinase activity.
Background: In an ELISA, binding on a coated surface is turned into a signal by an enzyme label.
Regarding `CCCCS(=O)(CCCC)=Nc1cc(-c2sc(CC)nc2-c2cccc(C)c2)ccn1` [Example 16, Di-n-butyl-N-[4-(2-ethyl-4-(3-methylphenyl)-1,3-thiazol-5-yl)-pyridine-2-yl]-sulfoximine], the IC50 came out at 1.9 µM.

Consider `CCc1nc(-c2ccc(F)cc2)c(-c2ccnc(N=S(C)(=O)c3ccc(F)cc3)c2)s1` (stereo not shown) [Example 41, S-Methyl-S-4-fluoro-phenyl-N-[4-(2-ethyl-4-(4-fluoro-phenyl)-1,3-thiazol-5-yl)-pyridine-2-yl]-sulfoximine], for which 1.4 µM corresponded to half-maximal inhibition (IC50).

In turn, `CCc1nc(-c2ccccc2)c(-c2ccnc(N=S(=O)(c3ccccc3)c3ccccc3)c2)s1` [Example 32, S,S-diphenyl-N-[4-(2-ethyl-4-phenyl-thiazol-5-yl)-pyridin-2-yl]-sulfoximine] showed an IC50 of 10 µM.

For the compound `CCc1nc(-c2ccccc2)c(-c2ccnc(N=S(C)(=O)c3ccc(F)cc3)c2)s1` (stereo not shown) [Example 27], the IC50 was determined as 3.1 µM.

The compound `CCc1nc(-c2cccc(C)c2)c(-c2ccnc(N=S3(=O)CCCC3)c2)s1` [Example 19, 1-Imino-N-[4-(2-ethyl-4-(3-methylphenyl)-1,3-thiazol-5-yl)-pyridine-2-yl]-tetrahydro-thiophene-1-oxide] had an IC50 of 6.8 µM.

In turn, `CCc1nc(-c2cccc(C)c2)c(-c2ccnc(N=S(C)(=O)c3cccc(F)c3)c2)s1` (stereo not drawn) [Example 9, S-(3-Fluorophenyl)-S-methyl-N-[4-(2-ethyl-4-m-tolyl-thiazol-5-yl)-pyridin-2-yl]-sulfoximine] showed a concentration for half-maximal inhibition (IC50) of 5.42 µM.

The compound `CCc1nc(-c2cccc(C)c2)c(-c2ccnc(N=S(C)(=O)c3ccc(F)c(Cl)c3)c2)s1` (stereo not drawn) [Example 17, S-Methyl-S-(3-chloro-4-fluoro-phenyl)-N-[4-(2-ethyl-4-(3-methylphenyl)-1,3-thiazol-5-yl)-pyridine-2-yl]-sulfoximine] yielded an IC50 of 10 µM.

The compound `CCc1nc(-c2ccccc2)c(-c2ccnc(N=S(C)(=O)c3ccccc3)c2)s1` (single isomer, unassigned; (-)) [Example 20] displayed an IC50 of 0.8 µM.

Compound `CCc1nc(-c2cccc(C)c2)c(-c2ccnc(N=S3(=O)CCCCC3)c2)s1` [Example 18, 1-Imino-N-[4-(2-ethyl-4-(3-methylphenyl)-1,3-thiazol-5-yl)-pyridine-2-yl]-tetrahydro-2H-thiopyran-1-oxide] had an IC50 of 15 µM.

`CCc1nc(-c2ccccc2)c(-c2ccnc(N=S(C)(=O)c3ccc(OC)cc3)c2)s1` (stereo not shown) [Example 23] yielded an IC50 of 6.6 µM.

For `CCc1nc(-c2ccccc2)c(-c2ccnc(N=S(=O)(c3ccccc3)C(C)C)c2)s1` (stereo not shown) [Example 22], half-maximal inhibition (IC50) required 5.01 µM.

Turning to `CCc1nc(-c2ccc(F)c(F)c2)c(-c2ccnc(N=S(C)(=O)c3ccc(F)cc3)c2)s1` (stereo not drawn) [Example 59, S-Methyl-S-(4-fluorophenyl)-N-{-4-[2-ethyl-4-(3,4-difluorophenyl)-thiazol-5-yl]pyridin-2-yl}-sulfoximine], the midpoint of inhibition, the IC50, lay at 6.6 µM.

With `CCc1nc(-c2cccc3ccccc23)c(-c2ccnc(N=S(C)(=O)c3ccccc3)c2)s1` (stereo not shown) [Example 53, S-Methyl-S-phenyl-N-{4-[2-ethyl-4-napthalene-1-yl-thiazol-5-yl]-pyridin-2-yl}-sulfoximine], the IC50 came to 1.9 µM.

`CC(C)S(=O)(=Nc1cc(-c2scnc2-c2cccc(F)c2)ccn1)c1ccccc1` (stereo not shown) [Example 72] came in with an IC50 of 3.9 µM.

In turn, `CCc1nc(-c2cccc(C)c2)c(-c2ccnc(N=[S@@](C)(=O)c3ccccc3)c2)s1` [Example 5, (+)-(S)-methyl-S-phenyl-N-[4-(2-ethyl-4-(3-methylphenyl)-1,3-thiazol-5-yl)-pyridine-2-yl]-sulfoximine] displayed an IC50 of 1.4 µM.

Compound `CCc1nc(-c2ccc(C)cc2)c(-c2ccnc(N=S(C)(=O)c3ccccc3)c2)s1` (stereo not shown) [Example 64, S-Methyl-S-phenyl-N-{4-[2-ethyl-4-p-tolyl-thiazol-5-yl]-pyridin-2-yl}-sulfoximine] displayed an IC50 of 9.4 µM.

In turn, `CCc1nc(-c2cccc(C)c2)c(-c2ccnc(N=S(=O)(CC)c3ccccc3)c2)s1` (stereo not shown) [Example 14, S-Ethyl-S-Phenyl-N-[4-(2-ethyl-4-(3-methylphenyl)-1,3-thiazol-5-yl)-pyridine-2-yl]-sulfoximine] gave an IC50 of 6.2 µM.

`CCc1nc(-c2cccc(C)c2)c(-c2ccnc(N=S(C)(=O)c3ccccc3C)c2)s1` (stereo not drawn) [Example 12, S-(2-Methylphenyl)-S-methyl-N-[4-(2-ethyl-4-m-tolyl-thiazol-5-yl)-pyridin-2-yl]-sulfoximine] displayed an IC50 of 6.95 µM.

Compound `CCc1nc(-c2ccc(F)cc2)c(-c2ccnc(N=S(C)(=O)c3ccccc3)c2)s1` (single isomer, unassigned; (-)) [Example 33, (−)-S-Methyl-S-phenyl-N-{-4-[2-ethyl-4-(4-fluoro-phenyl)-thiazol-5-yl]-pyridin-2-yl}-sulfoximine] showed an IC50 of 3.9 µM.

As for `CCc1nc(-c2cccc(C)c2)c(-c2ccnc(N=S(=O)(c3ccccc3)C3CCCC3)c2)s1` (stereo not shown) [Example 1, S-Cyclopentyl-S-phenyl-N-[4-(2-ethyl-4-(3-methylphenyl)-1,3-thiazol-5-yl)-pyridine-2-yl]-sulfoximine], it took 0.78 µM to reach half-maximal inhibition (IC50).

Regarding `CCc1nc(-c2ccccc2)c(-c2ccnc(N=S(C)(=O)c3ccccc3)c2)s1` (stereo not shown) [Example 31], 3.2 µM corresponded to half-maximal inhibition (IC50).

As for `CCc1nc(-c2ccc(F)cc2)c(-c2ccnc(N=S(=O)(c3ccccc3)C(C)C)c2)s1` (single isomer, unassigned; (+)) [Example 37, (+)-S-Isopropyl-S-phenyl-N-{4-[2-ethyl-4-(4-fluoro-phenyl)-thiazol-5-yl]-pyridin-2-yl}-sulfoximine], the IC50 turned out to be 5.93 µM.

For `CCc1nc(-c2cccc(C(F)(F)F)c2)c(-c2ccnc(N=S(C)(=O)c3ccccc3)c2)s1` (stereo not shown) [Example 54, S-Methyl-S-phenyl-N-{4-[2-ethyl-4-(3-trifluoromethylphenyl)-thiazol-5-yl]-pyridin-2-yl}sulfoximine], the IC50 came out at 4.8 µM.

In the case of `CCc1nc(-c2cccc(C)c2)c(-c2ccnc(N=S(C)(=O)c3ccc(F)cc3)c2)s1` (stereo not drawn) [Example 7, S-Methyl-S-(4-fluorophenyl)-N-[4-(2-ethyl-4-(3-methylphenyl)-1,3-thiazol-5-yl)-pyridine-2-yl]-sulfoximine], the IC50 is 3.8 µM.

`CCc1nc(-c2ccc(F)cc2)c(-c2ccnc(N=S(C)(=O)c3ccccc3)c2)s1` (stereo not shown) [Example 39, S-Methyl-S-phenyl-N-[4-(2-ethyl-4-(4-fluoro-phenyl)-1,3-thiazol-5-yl)-pyridine-2-yl]-sulfoximine] showed an IC50 of 4.6 µM.

In turn, `CCc1nc(-c2cccc(C)c2)c(-c2ccnc(N=S(C)(=O)c3ccc(OC)cc3)c2)s1` (stereo not shown) [Example 3, S-Methyl-S-4-methoxyphenyl-N-[4-(2-ethyl-4-m-tolyl-thiazol-5-yl)-pyridine-2-yl]-sulfoximine] returned an IC50 of 1.1 µM.

For `CCc1nc(-c2cccc(F)c2)c(-c2ccnc(N=S(C)(=O)c3ccccc3)c2)s1` (stereo not shown) [Example 50, S-Methyl-S-phenyl-N-[4-(2-ethyl-4-(3-fluoro-phenyl)-1,3-thiazol-5-yl)-pyridine-2-yl]-sulfoximine], the IC50 turned out to be 4.4 µM.

On to `CCc1nc(-c2ccc(F)cc2)c(-c2ccnc(N=S(=O)(CC)c3ccccc3)c2)s1` (stereo not shown) [Example 38, S-Ethyl-S-phenyl-N-{4-[2-ethyl-4-(4-fluoro-phenyl)-thiazol-5-yl]-pyridin-2-yl}-sulfoximine], for which the IC50 worked out at 0.17 µM.

The IC50 is the concentration needed to halve the response being measured. Read a high IC50 as lower potency.
